Experimental data published in ChEMBL document CHEMBL1121675, “Syntheses of 9-acridine- and 2-phenanthridinemethanols as potential antimalarials” (1981).
The source made the active and inactive calls. The calls are words filed in the database; no cut-off is given here.

Key:
Salmonella typhimurium [1] = assay: Mutagenic response at 1000 nmol/plate or lower for strain TA 100 of Salmonella Typhimurium; Not significant; type: functional, organism-based; details: Salmonella enterica subsp. enterica serovar Typhimurium
Salmonella typhimurium [2] = assay: Mutagenic response at 1000 nmol/plate or lower for strain TA 98 of Salmonella Typhimurium; Not significant; type: functional, organism-based; details: Salmonella enterica subsp. enterica serovar Typhimurium
Plasmodium berghei [3] = assay: Percent inhibition of adenosine uptake by Plasmodium berghei; type: functional
Plasmodium berghei [4] = assay: Percent inhibition of hypoxanthine uptake by Plasmodium berghei; type: functional
Mus musculus [5] = assay: Decrease in life span of mice treated with compound dose of 160 mg/kg; type: functional
Mus musculus [6] = assay: Decrease in life span of mice treated with compound dose of 320 mg/kg; type: functional

SMILES	Inhibition (Plasmodium berghei [3])	Inhibition (Plasmodium berghei [4])	other results
c1ccc2c(C3CO3)c3ccccc3nc2c1 (stereo not drawn)			Mutagenicity (Salmonella typhimurium [1]): inactive; Mutagenicity (Salmonella typhimurium [2]): inactive
CCN(CC)CCCC(C)Nc1c2ccc(Cl)cc2nc2ccc(OC)cc12 (stereo not drawn) [QUINACRINE]	80%	92%	
OC(CN1CCCCC1)c1c2ccccc2nc2ccccc12 (stereo not drawn)	31%	50%	
CCCCN(CCCC)CCC(O)c1c2ccccc2nc2ccccc12 (stereo not drawn)			Decrease in life span (Mus musculus [5]): 0.4 days
CCCCN(CCCC)CC(O)c1ccc2ncc3ccccc3c2c1 (stereo not drawn)			Decrease in life span (Mus musculus [6]): 0.1 days
